Assay results reported in US6403626B1, “Benzimidazole derivatives” (Synaptic Pharmaceutical Corporation, priority 1994, dated 2002).
Structures can show the parent of a compound that is named as a salt. Where two headings read alike, the source gives them in different places.

What was measured:
[1] = biological target: T1, α2C Human Adrenergic Receptor (Homo sapiens, UniProt P18825); type: cell-based; set-up: The entire coding region of α2C (1383 bp), including 2 bp of 5′ UT and 400 bp of 3′ UT; expressed in transfected cells; host or cells: LM(tk-) cells; settings: for I.A Alpha-2 C: functional cAMP assay
T1 sequence (P18825 1-462): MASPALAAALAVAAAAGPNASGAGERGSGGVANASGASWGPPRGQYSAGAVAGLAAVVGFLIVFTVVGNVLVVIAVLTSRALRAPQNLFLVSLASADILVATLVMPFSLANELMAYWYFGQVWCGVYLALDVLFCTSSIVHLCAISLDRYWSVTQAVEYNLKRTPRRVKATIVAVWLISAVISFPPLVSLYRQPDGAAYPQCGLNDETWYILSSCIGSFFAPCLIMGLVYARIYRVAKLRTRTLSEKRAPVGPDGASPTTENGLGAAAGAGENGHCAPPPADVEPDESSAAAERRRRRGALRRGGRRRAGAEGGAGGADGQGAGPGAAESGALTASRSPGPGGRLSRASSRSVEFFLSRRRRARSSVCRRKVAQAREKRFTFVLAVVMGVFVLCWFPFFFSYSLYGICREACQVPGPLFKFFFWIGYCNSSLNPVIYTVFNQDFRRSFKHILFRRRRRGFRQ
Experimental: (§1) Binding and functional assays were performed using stably transfected human alpha adrenergic receptors. Equilibrium competition binding assays were performed with membrane preparations from cultured LM(tk-) cells stably transfected with the cloned human adrenoceptor subtypes except for α2b, which was expressed in Y-1 cells, using [^3H] prazosin for α1 receptors and [^3H] rauwolscine for α2 receptors.
The insert housing this coding region was an @ 1.8 kb Ncol/EcoRI human spleen genomic fragment which was end-blunted by either T4 polymerase or Klenow fragment of DNA polymerase. Stable cell lines were selected as described above.
(§2) The agonist activity (expressed as pEC50) was measured as a function of the ability to inhibit the forskolin-stimulated synthesis of cyclic adenosine monophosphate (cAMP). The stably transfected cells were incubated in Ham's F10 with 5 mM theophylline, 10 mM HEPES, 10 μM pargyline, and/or appropriate concentrations of forskolin for 20 min at 37° C. in 5% CO2. The tested compounds were then added to a final concentration of 0.001 nM to 1 μM and incubated for an additional 15 min at 37° C. in 5% CO2. The medium was aspirated and the reaction was stopped by the addition of 100 mM HCl . […] The plates are stored at 4° C. for 15 min and assayed to determine the linear concentration of cAMP. The appropriate dilution is interpolated from the standard curve of cold cAMP. The assessment of cAMP formation is determined by radioimmunoassay (cAMP radioimmunoassay kit; Advanced Magnetics, Cambridge, Mass.). Radioactivity was quantified using a Packard COBRA Auto Gamma counter, equipped with data reduction software.

[2] = biological target: T2, α2B Human Adrenergic Receptor (Homo sapiens, UniProt P18089); type: cell-based
T2 construct: expressed in transfected cells; host or cells: Y-1 cells
T2 sequence (P18089 1-450): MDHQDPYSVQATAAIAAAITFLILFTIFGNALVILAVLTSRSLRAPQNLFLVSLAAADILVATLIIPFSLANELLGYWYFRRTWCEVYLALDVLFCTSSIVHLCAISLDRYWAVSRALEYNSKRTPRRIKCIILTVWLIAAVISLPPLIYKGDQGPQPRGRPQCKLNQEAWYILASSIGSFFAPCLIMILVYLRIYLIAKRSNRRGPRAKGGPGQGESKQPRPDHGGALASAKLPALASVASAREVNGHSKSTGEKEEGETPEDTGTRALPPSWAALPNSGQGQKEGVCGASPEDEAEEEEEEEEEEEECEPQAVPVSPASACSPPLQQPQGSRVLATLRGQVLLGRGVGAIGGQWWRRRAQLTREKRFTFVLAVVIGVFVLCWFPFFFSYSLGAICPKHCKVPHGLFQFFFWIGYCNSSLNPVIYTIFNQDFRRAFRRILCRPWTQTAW
Experimental: as §1
(§3) Stable cell lines were selected as described above.
as §2

[3] = biological target: T1, α2C Human Adrenergic Receptor; assay: Equilibrium competition binding, [3H] rauwolscine, membranes of transfected LM(tk-) cells
[4] = biological target: T2, α2B Human Adrenergic Receptor; assay: Equilibrium competition binding, [3H] rauwolscine, membranes of transfected Y-1 cells
Experimental: as §1, §3
(§4) Transfected cells from culture flasks were scraped into 5 ml of 5 mM Tris-HCl, 5 mM EDTA, pH 7.5, and lysed by sonication. The cell lysates were centrifuged at 1000 rpm for 5 min at 4° C., and the supernatant was centrifuged at 30,000×g for 20 min at 4° C. The pellet was suspended in 50 mM Tris-HCl, 1 mM MgCl2, and 0.1% ascorbic acid at pH 7.5. Binding of α2 antagonist [^3H] rauwolscine ([…]) to membrane preparations of LM(tk-) cells was done in a final volume of 0.25 ml and incubated at 37° C. for 20 min. Nonspecific binding was determined in the presence of 10 μM phentolamine. The reaction was stopped by filtration through GF/B filters using a cell harvester.

[5] = biological target: T3, α1A Human Adrenergic Receptor (Homo sapiens, UniProt P25100); assay: Equilibrium competition binding, [3H] prazosin, membranes of transfected LM(tk-) cells
T3 construct: expressed in transfected cells; host or cells: LM(tk-) cells
T3 sequence (P25100 1-572): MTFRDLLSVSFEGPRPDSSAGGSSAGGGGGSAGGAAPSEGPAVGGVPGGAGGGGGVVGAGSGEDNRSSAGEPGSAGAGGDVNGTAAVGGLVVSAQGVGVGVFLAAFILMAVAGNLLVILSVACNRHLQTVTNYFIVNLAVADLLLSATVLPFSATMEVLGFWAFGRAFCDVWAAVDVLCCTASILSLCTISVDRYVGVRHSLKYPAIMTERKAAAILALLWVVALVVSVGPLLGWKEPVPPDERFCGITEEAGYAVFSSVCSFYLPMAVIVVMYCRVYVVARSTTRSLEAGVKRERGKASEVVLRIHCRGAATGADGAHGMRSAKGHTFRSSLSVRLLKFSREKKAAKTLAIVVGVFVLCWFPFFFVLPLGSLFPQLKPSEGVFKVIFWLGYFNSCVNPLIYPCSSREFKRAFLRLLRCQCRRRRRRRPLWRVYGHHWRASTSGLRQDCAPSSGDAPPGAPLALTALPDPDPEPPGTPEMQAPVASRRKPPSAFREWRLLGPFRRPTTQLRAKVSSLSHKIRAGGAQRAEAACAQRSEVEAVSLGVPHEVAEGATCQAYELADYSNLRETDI
Experimental: as §1, §4, §3

[6] = biological target: T4, α1B Human Adrenergic Receptor (Homo sapiens, UniProt P35368); assay: as above; settings: cloned human receptor, [3H] prazosin
T4 construct: The entire coding region of α1B(1563 bp); expressed in transfected cells; host or cells: LM(tk-) cells
T4 sequence (P35368 1-520): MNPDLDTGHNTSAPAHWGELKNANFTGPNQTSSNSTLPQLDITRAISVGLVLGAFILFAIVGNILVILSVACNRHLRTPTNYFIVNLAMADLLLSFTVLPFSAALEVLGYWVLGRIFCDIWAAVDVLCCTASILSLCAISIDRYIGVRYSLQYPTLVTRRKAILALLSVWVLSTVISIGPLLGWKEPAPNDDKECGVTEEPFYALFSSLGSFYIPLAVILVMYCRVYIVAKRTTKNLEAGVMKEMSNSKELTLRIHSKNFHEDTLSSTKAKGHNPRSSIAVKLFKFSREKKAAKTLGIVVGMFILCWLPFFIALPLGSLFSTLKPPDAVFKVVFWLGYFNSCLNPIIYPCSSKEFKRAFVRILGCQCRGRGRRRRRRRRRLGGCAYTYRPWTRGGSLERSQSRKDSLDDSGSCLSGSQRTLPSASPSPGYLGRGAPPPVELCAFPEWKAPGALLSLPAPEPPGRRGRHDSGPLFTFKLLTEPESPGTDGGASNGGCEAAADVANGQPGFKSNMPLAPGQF
Experimental: as §1, §4
The construct involved ligating the full-length containing EcoRI brainstem cDNA fragment from ZapII into the expression vector. The stable cell lines were selected as described above.

[7] = cloned human receptor, [3H] rauwolscine, read-out: pKi Alpha-2 B (converted)
[8] = inhibition of forskolin-stimulated cAMP, NA: Not Active, read-out: pEC50 Alpha-2 C (converted)

SMILES | melting point [°C] | Ki [3] [nM] | Ki [4] [nM] | I.A Alpha-2 C [1] | further results
CCCCc1c(NC2=NCCN2)ccc2nc[nH]c12 (as salt: fumarate) [Example 8, 4-n-Butyl-5-(2-imidazolin-2-ylamino)Benzimidazole] | 96 | – | – | – | –
Brc1cc(NC2=NCCN2)cc2[nH]cnc12 (as salt: fumarate) [Example 51, 7-Bromo-5-(2-imidazolin-2-ylamino)Benzimidazole] | 217 to 218 | – | – | – | –
Clc1c(NC2=NCCN2)ccc2nc[nH]c12 (as salt: fumarate) [Example 3, 4-Chloro-5-(2-imidazolin-2-ylamino)Benzimidazole] | 207 to 208 | – | – | – | –
Brc1c(NC2=NCCN2)ccc2nc(C3CC3)[nH]c12 [Example 47, 2-Cyclopropyl-4-bromo-5-(2-imidazolin-2-ylamino)Benzimidazole] | – | 224 | 44.7 | – | EC50 [1]: 45.7 nM; EC50 [2]: 115 nM
Brc1c(NC2=NCCN2)ccc2c1ncn2CC1CCCCC1 [Example 30, 1-Cyclohexylmethyl-4-bromo-5-(2-imidazolin-2-ylamino)Benzimidazole] | – | 309 | – | – | Ki [4, 7]: 166 nM
CCCCc1cc(NC2=NCCN2)cc2[nH]cnc12 (as salt: fumarate) [Example 56, 7-Butyl-5-(2-imidazolin-2-ylamino)Benzimidazole] | 115 to 117 | – | – | – | –
Clc1cc(NC2=NCCN2)cc2[nH]cnc12 (as salt: fumarate) [Example 53, 7-Chloro-5-(2-imidazolin-2-ylamino)Benzimidazole] | 220 to 221 | – | – | – | –
Clc1cc(NC2=NCCN2)c(Br)c2[nH]cnc12 (as salt: fumarate) [Example 60, 4-Bromo-7-chloro-5-(2-imidazolin-2-ylamino)Benzimidazole] | 244 to 246 | – | – | – | –
Cc1cc2nc[nH]c2cc1NC1=NCCN1 [Example 49, 6-Methyl-5-(2-imidazolin-2-ylamino)Benzimidazole] | – | – | 36.3 | 1.00 | –
COc1cccc(Cn2cnc3c(Br)c(NC4=NCCN4)ccc32)c1 [Example 37, 1-(3-Methoxybenzyl)-4-bromo-5-(2-imidazolin-2-ylamino)Benzimidazole] | – | 117 | – | 0.50 | EC50 [1, 8]: 52.5 nM; Ki [4, 7]: 81.3 nM
c1ccc(-c2cc(NC3=NCCN3)cc3[nH]cnc23)cc1 [Example 57, 7-Phenyl-5-(2-imidazolin-2-ylamino)Benzimidazole] | – | 135 | – | – | EC50 [1, 8]: 15.1 nM; I.A Alpha-2 B ([2]; functional cAMP assay): 1.00; EC50 ([2]; inhibition of forskolin-stimulated cAMP, NA: Not Active, read-out: pEC50 Alpha-2 B (converted)): 8510 nM; Ki [4, 7]: 60.3 nM
CCCn1cnc2cc(NC3=NCCN3)ccc21 [Example 13, 1-Propyl-5-(2-imidazolin-2-ylamino)Benzimidazole] | – | 398 | 363 | – | Ki [5]: 10500 nM; Ki ([6]; read-out: pKi Alpha-1 B (converted)): 93300 nM
Brc1cc(NC2=NCCN2)cc2[nH]cnc12 [Example 51, 7-Bromo-5-(2-imidazolin-2-ylamino)Benzimidazole] | – | 123 | 27.5 | 1.00 | EC50 [1]: 4.27 nM; EC50 [2]: 89.1 nM; I.A Alpha-2 B [2]: 0.60
CC(C)n1cnc2c(I)c(NC3=NCCN3)ccc21 [Example 19, 1-lsopropyl-4-Iodo-5-(2-imidazolin-2-ylamino)Benzimidazole] | – | 129 | – | – | Ki [4, 7]: 214 nM
CCc1c(NC2=NCCN2)ccc2nc[nH]c12 [Example 6, 4-Ethyl-5-(2-imidazolin-2-ylamino)Benzimidazole] | – | 47.9 | 22.4 | 1.00 | EC50 [1]: 3.98 nM; EC50 [2]: 22.4 nM; I.A Alpha-2 B [2]: 1.00
Cc1cc(NC2=NCCN2)cc2[nH]cnc12 [Example 52, 7-Methyl-5-(2-imidazolin-2-ylamino)Benzimidazole] | – | – | 77.6 | 1.00 | EC50 [2]: 72.4 nM; I.A Alpha-2 B [2]: 0.80
CCc1cc(NC2=NCCN2)cc2[nH]cnc12 [Example 55, 7-Ethyl-5-(2-imidazolin-2-ylamino)Benzimidazole] | – | 427 | 209 | 0.80 | EC50 [1, 8]: 162 nM
Clc1cccc(Cl)c1N=C1NCCN1 [Clonidine, reference compound] | – | – | – | – | Ki ([5]; cloned human receptor, [3H] prazosin, read-out: pKi Alpha-1 A (converted)): 513 nM; pKi Alpha-1 B [6]: 5.62
